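In this assay, cells in 96-well plates receive the compound at five concentrations for 48 hours. Endpoints are linearly interpolated between the surrounding concentrations. GI50 is the concentration that inhibits growth by half.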 Activity calls are given as the source filed them. No stated cut-off is given here; in the data, active = GI50 up to about 1.1 µM and inactive = higher.
Assays:
Assay in all cases: NCI anticancer screen, dose series, 48 h
[1] = test system: 786-0
[2] = test system: A498
[3] = test system: A549
[4] = test system: ACHN
[5] = test system: BT-549
[6] = test system: CAKI-1
[7] = test system: CCRF-CEM
[8] = test system: COLO 205
[9] = test system: DU-145
[10] = test system: EKVX
[11] = test system: HCC 2998
[12] = test system: HCT-116
[13] = test system: HCT-15
[14] = test system: HL-60
[15] = test system: HOP-62
[16] = test system: HOP-92
[17] = test system: HT-29
[18] = test system: Hs-578T
[19] = test system: IGROV-1
[20] = test system: K562
[21] = test system: KM12
[22] = test system: LOX IMVI
[23] = test system: M14
[24] = test system: MCF7
[25] = test system: MDA-MB-231
[26] = test system: MDA-MB-435
[27] = test system: MDA-N
[28] = test system: MOLT-4
[29] = test system: Malme-3M
[30] = test system: NCI-H226
[31] = test system: NCI-H23
[32] = test system: NCI-H460
[33] = test system: NCI-H522
[34] = test system: NCI/ADR-RES
[35] = test system: OVCAR-3
[36] = test system: OVCAR-4
[37] = test system: OVCAR-5
[38] = test system: OVCAR-8
[39] = test system: PC-3
[40] = test system: RPMI-8226
[41] = test system: RXF 393
[42] = test system: SF-268
[43] = test system: SF-295
[44] = test system: SF-539
[45] = test system: SK-MEL-28
[46] = test system: SK-MEL-2
[47] = test system: SK-MEL-5
[48] = test system: SK-OV-3
[49] = test system: SN12C
[50] = test system: SNB-19
[51] = test system: SNB-75
[52] = test system: SR
[53] = test system: SW-620
[54] = test system: T47D
[55] = test system: TK-10
[56] = test system: U-251
[57] = test system: UACC-257
[58] = test system: UACC-62
[59] = test system: UO-31

## CC1OC(OC2C(O)C(O)C(O)C(O)C2O)C(N)CC1NC(=N)C(=O)O (centres undefined)
[1]
  GI50: > 100 µM (inactive)
[2]
  GI50: > 100 µM (inactive)
[3]
  GI50: > 100 µM (inactive)
[4]
  GI50: > 100 µM (inactive)
[5]
  GI50: > 100 µM (inactive)
[6]
  GI50: > 100 µM (inactive)
[7]
  GI50: > 100 µM (inactive)
[8]
  GI50: > 100 µM (inactive)
[9]
  GI50: > 100 µM (inactive)
[10]
  GI50: > 100 µM (inactive)
[11]
  GI50: > 100 µM (inactive)
[12]
  GI50: > 100 µM (inactive)
[13]
  GI50: > 100 µM
[14]
  GI50: > 100 µM (inactive)
[15]
  GI50: > 100 µM (inactive)
[16]
  GI50: > 100 µM (inactive)
[17]
  GI50: > 100 µM (inactive)
[18]
  GI50: > 100 µM (inactive)
[19]
  GI50: > 100 µM (inactive)
[20]
  GI50: > 100 µM (inactive)
[21]
  GI50: > 100 µM (inactive)
[22]
  GI50: > 100 µM (inactive)
[23]
  GI50: > 100 µM (inactive)
[24]
  GI50: > 100 µM (inactive)
[25]
  GI50: > 100 µM (inactive)
[26]
  GI50: > 100 µM (inactive)
[27]
  GI50: > 100 µM (inactive)
[28]
  GI50: > 100 µM (inactive)
[29]
  GI50: > 100 µM (inactive)
[30]
  GI50: > 100 µM (inactive)
[31]
  GI50: > 100 µM (inactive)
[32]
  GI50: > 100 µM (inactive)
[33]
  GI50: > 100 µM (inactive)
[34]
  GI50: > 100 µM (inactive)
[35]
  GI50: > 100 µM (inactive)
[36]
  GI50: > 100 µM (inactive)
[37]
  GI50: > 100 µM (inactive)
[38]
  GI50: > 100 µM (inactive)
[39]
  GI50: > 100 µM (inactive)
[40]
  GI50: > 100 µM (inactive)
[41]
  GI50: > 100 µM (inactive)
[42]
  GI50: > 100 µM (inactive)
[43]
  GI50: > 100 µM (inactive)
[44]
  GI50: > 100 µM (inactive)
[45]
  GI50: > 100 µM (inactive)
[46]
  GI50: > 100 µM (inactive)
[47]
  GI50: > 100 µM (inactive)
[48]
  GI50: > 100 µM (inactive)
[49]
  GI50: > 100 µM (inactive)
[50]
  GI50: > 100 µM (inactive)
[51]
  GI50: > 100 µM (inactive)
[52]
  GI50: > 100 µM (inactive)
[53]
  GI50: > 100 µM (inactive)
[54]
  GI50: > 100 µM (inactive)
[55]
  GI50: > 100 µM (inactive)
[56]
  GI50: > 100 µM (inactive)
[57]
  GI50: > 100 µM (inactive)
[58]
  GI50: > 100 µM (inactive)
[59]
  GI50: > 100 µM (inactive)
